# Results from PubChem BioAssay (NCI).
#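 Compound exposure: 48 hours, 5 concentrations, 96-well plates. At the GI50, growth is halved. TGI: total growth inhibition.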
# What was measured:
# Assay in all cases: inhibition of tumour cell growth, NCI panel, 48 h
# [1] = tested on: 786-0 renal
# [2] = tested on: HT29 colon
# [3] = tested on: M14 melanoma
# [4] = tested on: NCI-H226 lung
# [5] = tested on: LOX IMVI melanoma
# [6] = tested on: OVCAR-5 ovarian
# [7] = tested on: DU-145 prostate
# [8] = tested on: SW-620 colon
# [9] = tested on: TK-10 renal
# [10] = tested on: ACHN renal
# [11] = tested on: HOP-92 NSCLC
# [12] = tested on: UO-31 renal
# [13] = tested on: MCF7 breast
# [14] = tested on: RPMI-8226 leukemia
# [15] = tested on: NCI-H460 lung
# [16] = tested on: KM12 colon
# [17] = tested on: A498 renal
# [18] = tested on: SF-539 CNS
# [19] = tested on: HOP-62 NSCLC
# [20] = tested on: RXF 393 renal
# [21] = tested on: UACC-257 melanoma
# [22] = tested on: MDA-N
# [23] = tested on: SK-MEL-2 melanoma
# [24] = tested on: COLO 205 colon
# [25] = tested on: SK-MEL-28 melanoma
# [26] = tested on: PC-3 prostate
# [27] = tested on: NCI-H23 lung
# [28] = tested on: MOLT-4 leukemia
# [29] = tested on: SK-OV-3 ovarian
# [30] = tested on: OVCAR-8 ovarian
# [31] = tested on: SF-295 CNS
# [32] = tested on: NCI/ADR-RES ovarian
# [33] = tested on: CCRF-CEM leukemia
# [34] = tested on: UACC-62 melanoma
# [35] = tested on: MDA-MB-435
# [36] = tested on: OVCAR-3 ovarian
# [37] = tested on: SR leukemia
# [38] = tested on: SNB-19 CNS
# [39] = tested on: HCT-15 colon
# [40] = tested on: HCT-116 colon
# [41] = tested on: MALME-3M melanoma
# [42] = tested on: A549 NSCLC
# [43] = tested on: U251 CNS
# [44] = tested on: SF-268 CNS
# [45] = tested on: HCC-2998 colon
# [46] = tested on: HS 578T breast
# [47] = tested on: SK-MEL-5 melanoma
# [48] = tested on: HL-60(TB) leukemia
# [49] = tested on: K-562 leukemia
# [50] = tested on: SN12C renal
# [51] = tested on: EKVX NSCLC
# [52] = tested on: OVCAR-4 ovarian
# [53] = tested on: MDA-MB-231 breast
# [54] = tested on: IGROV1 ovarian
# [55] = tested on: NCI-H522 lung
# [56] = tested on: BT-549 breast
# [57] = tested on: T-47D breast
# [58] = tested on: CAKI-1 renal
# [59] = tested on: SNB-75 CNS
smiles,measurement,setting,value
Cc1nc2c(O)cc3c4c(n(Cc5ccccc5)c3c2nc1C)C(=O)CCC4,TGI,[1],69100 nM
same,TGI,[2],> 100000 nM
same,TGI,[3],> 100000 nM
same,TGI,[4],> 100000 nM
same,TGI,[5],> 100000 nM
same,TGI,[6],> 100000 nM
same,TGI,[7],> 100000 nM
same,TGI,[8],> 100000 nM
same,TGI,[9],> 100000 nM
same,TGI,[10],> 100000 nM
same,TGI,[11],74000 nM
same,TGI,[12],> 100000 nM
same,TGI,[13],> 100000 nM
same,TGI,[14],> 100000 nM
same,TGI,[15],> 100000 nM
same,TGI,[16],> 100000 nM
same,TGI,[17],> 100000 nM
same,TGI,[18],48100 nM
same,TGI,[19],39900 nM
same,TGI,[20],32200 nM
same,TGI,[21],> 100000 nM
same,TGI,[22],> 100000 nM
same,TGI,[23],50100 nM
same,TGI,[24],> 100000 nM
same,TGI,[25],76200 nM
same,TGI,[26],> 100000 nM
same,TGI,[27],> 100000 nM
same,TGI,[28],> 100000 nM
same,TGI,[29],69600 nM
same,TGI,[30],52600 nM
same,TGI,[31],> 100000 nM
same,TGI,[32],> 100000 nM
same,TGI,[33],> 100000 nM
same,TGI,[34],> 100000 nM
same,TGI,[35],> 100000 nM
same,TGI,[36],83200 nM
same,TGI,[37],> 100000 nM
same,TGI,[38],> 100000 nM
same,TGI,[39],> 100000 nM
same,TGI,[40],> 100000 nM
same,TGI,[41],> 100000 nM
same,TGI,[42],> 100000 nM
same,TGI,[43],64000 nM
same,TGI,[44],50900 nM
same,TGI,[45],> 100000 nM
same,TGI,[46],> 100000 nM
same,TGI,[47],> 100000 nM
same,TGI,[48],> 100000 nM
same,TGI,[49],> 100000 nM
same,TGI,[50],> 100000 nM
same,TGI,[51],> 100000 nM
same,TGI,[52],59300 nM
same,TGI,[53],> 100000 nM
O=C1/C(=C/c2ccccc2F)CN(C(=O)C(Cl)Cl)C/C1=C\c1ccccc1F,GI50,[1],666 nM
same,TGI,[1],2000 nM
same,GI50,[2],271 nM
same,TGI,[2],1060 nM
same,GI50,[3],387 nM
same,TGI,[3],1610 nM
same,GI50,[4],1400 nM
same,TGI,[4],6850 nM
same,GI50,[5],110 nM
same,TGI,[5],297 nM
same,GI50,[6],796 nM
same,TGI,[6],2290 nM
same,GI50,[7],1010 nM
same,TGI,[7],2350 nM
same,GI50,[8],93 nM
same,TGI,[8],343 nM
same,GI50,[54],351 nM
same,TGI,[54],1440 nM
same,GI50,[9],1610 nM
same,TGI,[9],3020 nM
same,GI50,[10],327 nM
same,TGI,[10],1090 nM
same,GI50,[11],1530 nM
same,TGI,[11],3390 nM
same,GI50,[12],440 nM
same,TGI,[12],1670 nM
same,GI50,[13],101 nM
same,TGI,[13],983 nM
same,GI50,[14],83.1 nM
same,TGI,[14],935 nM
same,GI50,[15],550 nM
same,TGI,[15],2240 nM
same,GI50,[16],245 nM
same,TGI,[16],685 nM
same,GI50,[17],1540 nM
same,TGI,[17],3140 nM
same,GI50,[18],431 nM
same,TGI,[18],1780 nM
same,GI50,[19],906 nM
same,TGI,[19],2440 nM
same,GI50,[20],584 nM
same,TGI,[20],1750 nM
same,GI50,[21],1080 nM
same,TGI,[21],3190 nM
same,GI50,[23],1600 nM
same,TGI,[23],3620 nM
same,GI50,[24],711 nM
same,TGI,[24],2570 nM
same,GI50,[25],477 nM
same,TGI,[25],1470 nM
same,GI50,[55],281 nM
same,TGI,[55],1060 nM
same,GI50,[26],296 nM
same,TGI,[26],1080 nM
same,GI50,[27],389 nM
same,TGI,[27],1560 nM
same,GI50,[28],329 nM
same,GI50,[29],1650 nM
same,TGI,[29],3280 nM
same,GI50,[30],313 nM
same,TGI,[30],1110 nM
same,GI50,[31],391 nM
same,TGI,[31],1520 nM
same,GI50,[32],342 nM
same,TGI,[32],2640 nM
same,GI50,[33],106 nM
same,TGI,[33],> 100000 nM
same,GI50,[34],378 nM
same,TGI,[34],1080 nM
same,GI50,[35],313 nM
same,TGI,[35],1010 nM
same,GI50,[36],319 nM
same,TGI,[36],1020 nM
same,GI50,[37],66.5 nM
same,GI50,[38],349 nM
same,TGI,[38],1460 nM
same,GI50,[39],217 nM
same,TGI,[39],694 nM
same,GI50,[40],131 nM
same,TGI,[40],286 nM
same,GI50,[41],599 nM
same,TGI,[41],1920 nM
same,GI50,[42],1380 nM
same,TGI,[42],3320 nM
same,GI50,[43],213 nM
same,TGI,[43],665 nM
same,GI50,[44],916 nM
same,TGI,[44],3720 nM
same,GI50,[45],696 nM
same,TGI,[45],1960 nM
same,GI50,[46],985 nM
same,TGI,[46],5510 nM
same,GI50,[56],422 nM
same,TGI,[56],1440 nM
same,GI50,[57],710 nM
same,TGI,[57],3970 nM
same,GI50,[58],986 nM
same,TGI,[58],2300 nM
same,GI50,[47],533 nM
same,TGI,[47],1640 nM
same,GI50,[48],363 nM
same,TGI,[48],2250 nM
same,GI50,[49],< 40 nM
same,TGI,[49],> 100000 nM
same,GI50,[50],244 nM
same,TGI,[50],691 nM
same,GI50,[51],451 nM
same,TGI,[51],2060 nM
same,GI50,[52],526 nM
same,TGI,[52],1830 nM
same,GI50,[59],572 nM
same,TGI,[59],1950 nM
same,GI50,[53],404 nM
same,TGI,[53],1580 nM
